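Cells were grown in 96-well plates and exposed to each compound for 48 hours at five concentrations; endpoints were interpolated linearly between bracketing concentrations, or set to the highest concentration if not reached. GI50 is the concentration that inhibits growth by half.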 Active and inactive are the calls of the source. No stated cut-off is given here; in the data, active = GI50 up to about 1.1 µM and inactive = higher.
Tests used:
Assay in all cases: NCI-60 cell line screen, 48 h
SK-OV-3 = test system: SK-OV-3
UACC-257 = test system: UACC-257
IGROV-1 = test system: IGROV-1
HCT-116 = test system: HCT-116
UO-31 = test system: UO-31
SK-MEL-5 = test system: SK-MEL-5
SF-295 = test system: SF-295
MDA-N = test system: MDA-N
HT-29 = test system: HT-29
TK-10 = test system: TK-10
ACHN = test system: ACHN
KM12 = test system: KM12
COLO 205 = test system: COLO 205
LOX IMVI = test system: LOX IMVI
MDA-MB-231 = test system: MDA-MB-231
RPMI-8226 = test system: RPMI-8226
RXF 393 = test system: RXF 393
HOP-62 = test system: HOP-62
HL-60 = test system: HL-60
786-0 = test system: 786-0
NCI-H226 = test system: NCI-H226
A549 = test system: A549
HCT-15 = test system: HCT-15
K562 = test system: K562
SW-620 = test system: SW-620
SNB-19 = test system: SNB-19
NCI/ADR-RES = test system: NCI/ADR-RES
SK-MEL-2 = test system: SK-MEL-2
OVCAR-5 = test system: OVCAR-5
OVCAR-8 = test system: OVCAR-8
MDA-MB-435 = test system: MDA-MB-435
Malme-3M = test system: Malme-3M
NCI-H522 = test system: NCI-H522
M14 = test system: M14
Hs-578T = test system: Hs-578T
MOLT-4 = test system: MOLT-4
PC-3 = test system: PC-3
CAKI-1 = test system: CAKI-1
SR = test system: SR
A498 = test system: A498
SF-268 = test system: SF-268
SN12C = test system: SN12C
U-251 = test system: U-251
T47D = test system: T47D
EKVX = test system: EKVX
OVCAR-3 = test system: OVCAR-3
UACC-62 = test system: UACC-62
OVCAR-4 = test system: OVCAR-4
DU-145 = test system: DU-145
SK-MEL-28 = test system: SK-MEL-28

Measured: GI50

O=C1N[C@@H](COc2ccc(/C=N/c3ccc(CCc4ccc(/N=C/c5ccc(OC[C@@H]6COC(=O)N6)cc5)cc4)cc3)cc2)CO1
inactive: SK-OV-3 > 100 µM | UACC-257 > 100 µM | IGROV-1 > 100 µM | HCT-116 > 100 µM | UO-31 > 100 µM | SK-MEL-5 > 100 µM | SF-295 > 100 µM | MDA-N > 100 µM | HT-29 > 100 µM | TK-10 > 100 µM | ACHN > 100 µM | KM12 > 100 µM | COLO 205 > 100 µM | LOX IMVI > 100 µM | MDA-MB-231 > 100 µM | RPMI-8226 > 100 µM | RXF 393 > 100 µM | HOP-62 > 100 µM | HL-60 > 100 µM | 786-0 > 100 µM | NCI-H226 > 100 µM | A549 > 100 µM | K562 > 100 µM | SW-620 > 100 µM | SNB-19 > 100 µM | NCI/ADR-RES > 100 µM | SK-MEL-2 > 100 µM | OVCAR-5 > 100 µM | OVCAR-8 > 100 µM | MDA-MB-435 > 100 µM | Malme-3M > 100 µM | NCI-H522 > 100 µM | M14 > 100 µM | Hs-578T > 100 µM | MOLT-4 > 100 µM | PC-3 > 100 µM | CAKI-1 > 100 µM | SR > 100 µM | A498 > 100 µM | SF-268 > 100 µM | SN12C > 100 µM | U-251 > 100 µM | T47D > 100 µM | EKVX > 100 µM | OVCAR-3 > 100 µM | UACC-62 > 100 µM | OVCAR-4 > 100 µM | DU-145 > 100 µM | SK-MEL-28 > 100 µM
> 100 µM: HCT-15

From ChEMBL document CHEMBL1201862, “PubChem BioAssay data set” (2004)
